The values below come from patent publication US11952365B2, “Anti-viral compounds” (Aligos Therapeutics, Inc., priority 2020, dated 2024).

Like-named read-outs stand apart in the source and are kept apart here.

The subject of data set [1] is SARS-CoV-2-GHB-03021/2020. The data set can be described thus: SARS-CoV-2 Infection Model in Huh7 Cells. Format: cell-based. The settings on record: Severe acute respiratory syndrome coronavirus 2, Huh-7, 96 h, SARS-CoV-2, day 4 p.i., MTS.
In data set [2] the test system is SARS-CoV-2-GHB-03021/2020. The data set can be described thus: microbe, parasite or virus in culture. Format: cell-based. The conditions noted are these: Severe acute respiratory syndrome coronavirus 2, Vero C1008, 96 h; read-out: VeroE6 + CP (EC50).
A further data set concerns the target T1, human cathepsin L (Homo sapiens, UniProt P07711).
T1 construct: purchased R&D Systems
The data set can be described thus: cathepsin L assay. In kind it is biochemical. The conditions noted are these: 10 pM human cathepsin L, Z-FR-AMC 2 μM. In short, it runs like this: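 Reactions began by adding 2 μM (final) Z-FR-AMC substrate to 10 pM human cathepsin L that had been preincubated 30 min with inhibitor. Kinetic AMC fluorescence at 355/460 nm over 30 min at 2-min intervals; four-parameter fitting gave IC50 values.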

The next data set concerns the target 3CLpro (Severe acute respiratory syndrome coronavirus 2, UniProt P0DTD1). Description: SARS-CoV-2 3CLpro protease assay (duplex, SAMDI-MS). Format: biochemical. Set-up: For the duplex assay, 3CLpro and HRV3C was added. The conditions noted are these: 3CLpro, 30 mins preincubation, class symbols; read-out: SARS-Cov-2 IC50.
Data set [3] has as its system human beta-coronavirus OC43. The data set can be described thus: microbe, parasite or virus in culture. Format: cell-based. The settings on record: Betacoronavirus 1, OC43, HeLa, 144 h, OC43 in HeLa cells, 6 days at 33° C., class symbols; read-out: EC50.
A further data set deals with HRV3C (Human rhinovirus 14, UniProt P03303). Description: HRV3C protease assay (duplex, SAMDI-MS). In kind it is biochemical, HRV. In short, it runs like this:
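Compounds are preincubated 30 min with the protease pair before substrate addition, and cleavage proceeds 30 min at room temperature. Product peptides are measured by SAMDI-MS relative to internal standards, with IC50 obtained from a four-parameter fit.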

The nature of data set [4]: Cytotoxicity plates without OC43 virus (cell-titer-glo). The settings on record: human; HeLa cells without OC43 virus, class symbols. In kind it is cell-based, human. In short, it runs like this:
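Run as a virus-free counterpart of the OC43 cytopathic-effect assay. Attached HeLa cells received compound dilutions in EMEM with 2% FBS and were kept 6 days at 33 °C. Cell viability was then measured by CellTiter-Glo luminescence.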

Data set [5] can be described thus: in vitro. The conditions noted are these: African green monkey, VeroE6 + CP (CC50), Vero E6-eGFP cells with CP-100356, absence of virus, MTS.
The nature of data set [6]: in vitro. The settings on record: human.
Setting [7] is: HRV3C, 30 mins preincubation, class symbols, read-out: HRV IC50.
Setting [8] is: HRV3C, 30 mins preincubation, bound, read-out: HRV IC50.

Regarding `COc1cccc2[nH]c(C(=O)N3C[C@]4(C[C@H]3C(=O)N[C@@H](C[C@@H]3CCCNC3=O)C(=O)CO)CC4(F)F)cc12` [Compound 47, (3S,6S)-1,1-difluoro-N-[(2S)-4-hydroxy-3-oxo-1-[(3S)-2-oxopiperidin-3-yl]butan-2-yl]-5-(4-methoxy-1H-indole-2-carbonyl)-5-azaspiro[2.4]heptane-6-carboxamide], the EC50 (in general, the concentration that produces a half-maximal response) fell in the range of 1 to 10 µM in data set [1] (class symbols), 1 to 10 µM in data set [2] and 0.1 to 1 µM in data set [3]. In addition, the results for the IC50 on human cathepsin L (class symbols), on 3CLpro and on HRV3C (setting [7]) were ≥ 10 µM, 0.02 to 0.2 µM and 2 to 20 µM, respectively. For the same molecule, in data set [4], the CC50 at 6 days is > 10 µM. For the same molecule, the CC50 in the data set “in vitro [5]” (numeric bounds) and in the data set “in vitro [6]” was > 100 µM throughout.
On to `COc1cccc2[nH]c(C(=O)N3C[C@]4(C[C@H]3C(=O)N[C@@H](C[C@@H]3CCCNC3=O)C(=O)COCc3ccccc3)CC4(F)F)cc12` [Compound 47A, (3S,6S)—N-[(2S)-4-(benzyloxy)-3-oxo-1-[(3S)-2-oxopiperidin-3-yl]butan-2-yl]-1,1-difluoro-5-(4-methoxy-1H-indole-2-carbonyl)-5-azaspiro[2.4]heptane-6-carboxamide], for which the EC50 in [1] (class symbols) is 1 to 10 µM; in [2] it was 1 to 10 µM; in [3], < 0.1 µM. The IC50 – broadly, the concentration needed to halve the response being measured – is ≥ 10 µM against human cathepsin L (class symbols), 0.02 to 0.2 µM on 3CLpro and 2 to 20 µM at HRV3C (setting [7]). For the same molecule, the CC50 at 6 days in data set [4] is > 10 µM. Further, the results for the CC50 in “in vitro [5]” (numeric bounds) and in the data set “in vitro [6]” were > 100 µM and > 10 µM, respectively.
On to `CC(C)[C@@H]1C[C@@H](C(=O)NC(C[C@@H]2CCNC2=O)C(=O)C(=O)NCc2ccccc2)N(C(=O)c2cc3ccccc3[nH]2)C1` (stereo partly drawn) [Compound 48, N-benzyl-3-{[(2S,4S)-1-(1H-indole-2-carbonyl)-4-isopropylpyrrolidin-2-yl]formamido}-2-oxo-4-[(3S)-2-oxopyrrolidin-3-yl]butanamide], for which the EC50 in data set [1] (class symbols) was in the range of 1 to 10 µM; in data set [2], 1 to 10 µM; in [3], 0.1 to 1 µM. The figures for the IC50 against human cathepsin L (class symbols), on 3CLpro and at HRV3C (setting [7]) were 0.1 to 1 µM, 0.2 to 2 µM and 2 to 20 µM, respectively. Further, the CC50 at 6 days in data set [4] was > 10 µM. The CC50 in the data set “in vitro [5]” (numeric bounds) was > 100 µM; in the data set “in vitro [6]” it was > 10 µM.
As to `COc1cccc2[nH]c(C(=O)N3C[C@H]4[C@@H]([C@H]3C(=O)N[C@@H](C[C@@H]3CCCNC3=O)C(=O)CO)C4(C)C)cc12` [Compound 49, (1R,2S,5S)—N-[(2S)-4-hydroxy-3-oxo-1-[(3S)-2-oxopiperidin-3-yl]butan-2-yl]-3-(4-methoxy-1H-indole-2-carbonyl)-6,6-dimethyl-3-azabicyclo[3.1.0]hexane-2-carboxamide], the figures for the concentration giving a half-maximal response (EC50) in [1] (class symbols), in data set [2] and in [3] were 1 to 10 µM, 1 to 10 µM and 0.1 to 1 µM, respectively. The IC50 was > 3.3 µM against human cathepsin L (bound), < 0.02 µM on 3CLpro and > 10 µM on HRV3C (setting [8]). For the same molecule, in data set [4], the CC50 at 6 days is > 10 µM. The CC50 in “in vitro [5]” (numeric bounds) and in the data set “in vitro [6]” was > 100 µM each time.
`COc1cccc2[nH]c(C(=O)N3C[C@H]4[C@@H]([C@H]3C(=O)N[C@@H](C[C@@H]3CCCNC3=O)C(=O)COCc3ccccc3)C4(C)C)cc12` [Compound 49A, (1R,2S,5S)—N-[(2S)-4-(benzyloxy)-3-oxo-1-[(3S)-2-oxopiperidin-3-yl]butan-2-yl]-3-(4-methoxy-1H-indole-2-carbonyl)-6,6-dimethyl-3-azabicyclo[3.1.0]hexane-2-carboxamide]: the EC50 in data set [1] (class symbols) was in the range of 1 to 10 µM; in [2] it was 1 to 10 µM; in data set [3] it was 0.1 to 1 µM. The IC50 against human cathepsin L (class symbols) was ≥ 10 µM; at 3CLpro it was 0.02 to 0.2 µM; on HRV3C (setting [8]), > 10 µM. In [4], the CC50 at 6 days was > 10 µM. Moreover, the CC50 in “in vitro [5]” (class symbols) and in “in vitro [6]” was > 10 µM each time.
As for `COc1cccc2[nH]c(C(=O)N3C[C@@H]4CCC[C@@H]4[C@H]3C(=O)N[C@@H](C[C@@H]3CCNC3=O)C(=O)c3nc4ccccc4s3)cc12` [Compound 50, (1S,3aR,6aS)—N-[(2S)-1-(1,3-benzothiazol-2-yl)-1-oxo-3-[(3S)-2-oxopyrrolidin-3-yl]propan-2-yl]-2-(4-methoxy-1H-indole-2-carbonyl)-hexahydro-1H-cyclopenta[c]pyrrole-1-carboxamide], the EC50 in [1] (class symbols) fell in the range of 1 to 10 µM; in data set [2], 1 to 10 µM; in data set [3], 0.1 to 1 µM. For the same molecule, the IC50 against human cathepsin L (class symbols) was ≥ 10 µM; on 3CLpro, 0.02 to 0.2 µM; at HRV3C (setting [8]), > 10 µM. The CC50 at 6 days in data set [4] was > 10 µM. For the same molecule, the CC50 in “in vitro [5]” (numeric bounds) was > 100 µM; in the data set “in vitro [6]”, > 10 µM.
For the molecule `COc1cccc2[nH]c(C(=O)N3C[C@H]4[C@@H]([C@H]3C(=O)N[C@@H](C[C@@H]3CCNC3=O)C(=O)C(N)=O)C4(C)C)cc12` [Compound 51, (3S)-3-{[(1R,2S,5S)-3-(4-methoxy-1H-indole-2-carbonyl)-6,6-dimethyl-3-azabicyclo[3.1.0]hexan-2-yl]formamido}-2-oxo-4-[(3S)-2-oxopyrrolidin-3-yl]butanamide], the EC50 in data set [1] (numeric bounds) is > 100 µM; in data set [2], > 100 µM; in data set [3] it was 1 to 10 µM. The IC50 was 0.1 to 1 µM at human cathepsin L (class symbols), < 0.02 µM at 3CLpro and 0.2 to 2 µM at HRV3C (setting [7]). The CC50 at 6 days in [4] is > 10 µM. Moreover, the CC50 in “in vitro [5]” (numeric bounds) and in “in vitro [6]” was > 100 µM throughout.
As for `COc1cccc2[nH]c(C(=O)N3C[C@@H]4CCC[C@@H]4[C@H]3C(=O)NC(C[C@@H]3CCNC3=O)C(=O)C(=O)NC3CC3)cc12` (stereo partly drawn) [Compound 52, 3-{[(1S,3aR,6aS)-2-(4-methoxy-1H-indole-2-carbonyl)-hexahydro-1H-cyclopenta[c]pyrrol-1-yl]formamido}-N-cyclopropyl-2-oxo-4-[(3S)-2-oxopyrrolidin-3-yl]butanamide], the EC50 lay in the range of 10 to 100 µM in [1] (class symbols), 1 to 10 µM in [2] and 1 to 10 µM in [3]. For the same molecule, the results for the IC50 against human cathepsin L (class symbols), on 3CLpro and at HRV3C (setting [7]) were ≥ 10 µM, < 0.02 µM and 0.2 to 2 µM, respectively. In addition, in [4], the CC50 at 6 days was > 10 µM. Besides, the CC50 in the data set “in vitro [5]” (numeric bounds) and in “in vitro [6]” was > 100 µM in each case.
As to `COc1cccc2[nH]c(C(=O)N3C[C@@H]4CCC[C@@H]4[C@H]3C(=O)N[C@@H](C[C@@H]3CCCNC3=O)C(O)S(=O)(=O)O)cc12` (stereo partly drawn) [Compound 53, sodium (2S)-2-{[(1S,3aR,6aS)-2-(4-methoxy-1H-indole-2-carbonyl)-hexahydro-1H-cyclopenta[c]pyrrol-1-yl]formamido}-1-hydroxy-3-[(3S)-2-oxopiperidin-3-yl]propane-1-sulfonate], the EC50 in [1] (class symbols) was < 1 µM; in [2], 1 to 10 µM; in data set [3] it was 0.1 to 1 µM. Further, the IC50 against human cathepsin L (class symbols) was ≥ 10 µM; on 3CLpro it was < 0.02 µM; on HRV3C (HRV IC50, HRV3C, 30 mins preincubation, class symbols), 0.02 to 0.2 µM. Further, in [4], the CC50 at 6 days was > 10 µM. The CC50 in “in vitro [5]” (numeric bounds) and in the data set “in vitro [6]” was > 100 µM each time.
`COc1cccc2[nH]c(C(=O)N3C[C@@H]4CCC[C@@H]4[C@H]3C(=O)N[C@@H](C[C@@H]3CCNC3=O)C(=O)c3ncc[nH]3)cc12` [Compound 54, (1S,3aR,6aS)—N-[(2S)-1-(1H-imidazol-2-yl)-1-oxo-3-[(3S)-2-oxopyrrolidin-3-yl]propan-2-yl]-2-(4-methoxy-1H-indole-2-carbonyl)-hexahydro-1H-cyclopenta[c]pyrrole-1-carboxamide]: the EC50 in data set [1] (numeric bounds) is > 100 µM; in [2] it was > 100 µM; in data set [3] it was 10 to 100 µM. Moreover, the IC50 is ≥ 10 µM on human cathepsin L (class symbols); 2 to 20 µM on 3CLpro; > 10 µM at HRV3C (HRV3C, printed bound without unit, read-out: HRV IC50). The CC50 at 6 days in data set [4] was > 10 µM. Further, the CC50 in the data set “in vitro [5]” (numeric bounds) and in the data set “in vitro [6]” was > 100 µM throughout.
